In patent US11377464B2, “Galactoside inhibitor of galectins” (Galecto Biotech AB, priority 2015, dated 2022):

What was measured:
galectin-3 = galectin-3 (Homo sapiens (Human), UniProt P17931); experiment: Fluorescence anisotropy assay: compound as inhibitor of the interaction between galectin and a fluorescein tagged saccharide probe; type: binding; conditions: 50 nM galectin-3, 100 nM albumin for high affinity compounds
Protocol: 100 nM albumin was included as a carrier to prevent protein loss at such low concentration of galectin.

galectins = conditions: cited from earlier work

galectin-3, sequence (P17931 whole entry): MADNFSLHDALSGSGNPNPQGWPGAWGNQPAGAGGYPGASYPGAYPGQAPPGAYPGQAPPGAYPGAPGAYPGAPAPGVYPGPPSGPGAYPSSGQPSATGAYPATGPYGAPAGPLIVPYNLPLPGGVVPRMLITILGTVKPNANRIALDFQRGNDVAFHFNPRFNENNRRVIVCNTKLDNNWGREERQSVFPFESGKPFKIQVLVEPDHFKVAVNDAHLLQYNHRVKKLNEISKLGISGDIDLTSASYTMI

| SMILES | Kd (galectin-3) [µM] | affinity relative to lactose (galectins) |
| --- | --- | --- |
| O=C(NCC(F)(F)F)c1cn([C@@H]2C(O)[C@@H](Sc3ccc(Cl)c(Cl)c3)OC(CO)[C@@H]2O)nn1 (stereo in doubt) [Example 98] | 0.56 | – |
| O=C[C@H](O)[C@@H](O)[C@@H](O)[C@H](O)CO [D-galactose, D-(+)-galactose] | – | 50-100 times lower |
